Experimental data published in patent US20050137220A1 (Pharmacia Corporation, priority 2003, published 2005).
Counter-ions that a name gives are not always drawn. Like-named read-outs stand apart in the source and are kept apart here.

Columns and labels:
MK-2 = MK-2 (Homo sapiens, UniProt P49137); test: Determination of MK-2 IC50 (phosphorylation of HSP-peptide, anion exchange resin capture assay); type: biochemical; settings: additional values are replicate IC50 experiments; mixture of stereoisomers implied unless otherwise noted; read-out: MK-2 Avg. IC50
U937 cells = test: U937 Cell TNFα Release Assay; type: cell-based, human; settings: mixture of stereoisomers implied unless otherwise noted
[1] = Homo sapiens, U-937, 4 h, LPS-stimulated differentiated U937 cells, TNFα by ELISA, read-out: TNF Release Assay Avg. IC50
[2] = Homo sapiens, U-937, LPS-stimulated differentiated U937 cells, TNFα by ELISA, read-out: TNF Release Assay Avg. IC50
[3] = Homo sapiens, U-937, 4 h, read-out: TNF Release Assay Avg. IC50, LPS-stimulated differentiated U937 cells, TNFα by ELISA

Chain of MK-2 (P49137 whole entry, species assumed): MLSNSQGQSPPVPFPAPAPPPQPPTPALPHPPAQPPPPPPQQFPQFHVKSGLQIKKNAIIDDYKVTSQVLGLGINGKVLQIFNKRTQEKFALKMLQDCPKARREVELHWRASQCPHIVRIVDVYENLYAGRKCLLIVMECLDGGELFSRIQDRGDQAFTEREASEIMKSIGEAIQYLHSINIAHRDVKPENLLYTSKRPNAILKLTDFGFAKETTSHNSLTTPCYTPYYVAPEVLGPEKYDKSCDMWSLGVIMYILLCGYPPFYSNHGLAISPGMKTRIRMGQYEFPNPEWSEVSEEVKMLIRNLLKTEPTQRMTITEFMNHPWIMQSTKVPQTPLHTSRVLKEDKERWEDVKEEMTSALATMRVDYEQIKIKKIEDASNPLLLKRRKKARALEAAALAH

| SMILES | IC50 (MK-2) [µM] | IC50 (U937 cells; [1]) [µM] | IC50 (U937 cells; [2]) [µM] | IC50 (U937 cells; [3]) [µM] | IC50 (U937 cells; read-out: TNF Release Assay Avg. IC50, LPS-stimulated differentiated U937 cells, TNFα by ELISA) [µM] |
| --- | --- | --- | --- | --- | --- |
| O=C(O)C1NCCc2c1[nH]c1ccc(OCc3ccccc3Cl)cc21 (stereo not drawn) [Example 72, 6-[(2-chlorobenzyl)oxy]-2,3,4,9-tetrahydro-1H-beta-carboline-1-carboxylic acid trifluoroacetate] | 15.5 | 7.68 | – | – | – |
| COc1ccc2[nH]c3c(c2c1)C(C)(C)CNC3C(=O)O (stereo not drawn) [Example 73, 6-methoxy-4,4-dimethyl-2,3,4,9-tetrahydro-1H-beta-carboline-1-carboxylic acid] | 15.8 | > 100 | – | – | – |
| O=C(O)C1NCCc2c1[nH]c1ccc(OCCCCl)cc21 (stereo not drawn) [Example 76, 6-(3-chloropropoxy)-2,3,4,9-tetrahydro-1H-beta-carboline-1-carboxylic acid hydrochloride] | 16.7 | > 100 | – | – | – |
| O/N=C1\CCCc2c1[nH]c1ccc(I)cc21 [Example 77, 6-iodo-2,3,4,9-tetrahydro-1H-carbazol-1-one oxime] | 17 | – | 23.2 | – | – |
| COc1ccc2[nH]c3c(c2c1)CCC(C)/C3=N/O (stereo not drawn) [Example 78, 6-methoxy-2-methyl-2,3,4,9-tetrahydro-1H-carbazol-1-one oxime] | 17 | – | 1.59 | – | – |
| O=C(O)C1NCCc2c1[nH]c1ccc(OCCCCCl)cc21 (stereo not drawn) [Example 79, 6-(4-chlorobutoxy)-2,3,4,9-tetrahydro-1H-beta-carboline-1-carboxylic acid hydrochloride] | 17.4 | > 100 | – | – | – |
| O=C(O)C1NCCc2c1[nH]c1ccc(OCc3cccc(Cl)c3)cc21 (stereo not drawn) [Example 80, 6-[(3-chlorobenzyl)oxy]-2,3,4,9-tetrahydro-1H-beta-carboline-1-carboxylic acid] | 17.9 | 17.8 | – | – | – |
| O=C(O)C1NCCc2c1[nH]c1ccc(OCc3ccncc3)cc21 (stereo not drawn) [Example 85, 6-(pyridin-4-ylmethoxy)-2,3,4,9-tetrahydro-1H-beta-carboline-1-carboxylic acid hydrochloride] | 25.8 | 48.4 | – | – | – |
| CN(C)C(=O)COc1ccc2[nH]c3c(c2c1)CCNC3C(=O)O (stereo not drawn) [Example 86, 6-[2-(dimethylamino)-2-oxoethoxy]-2,3,4,9-tetrahydro-1H-beta-carboline-1-carboxylic acid hydrochloride] | 27.7 | > 100 | – | – | – |
| O=C(O)C1NCCc2c1[nH]c1ccc(Br)cc21 (stereo not drawn) [Example 89, 6-bromo-2,3,4,9-tetrahydro-1H-beta-carboline-1-carboxylic acid compound with ethanol(1:1) hydrochloride] | 28.2 | – | – | > 100 | – |
| COC(=O)C1c2[nH]c3ccc(O)cc3c2CCN1C (stereo not drawn) [Example 129, methyl 6-hydroxy-2-methyl-2,3,4,9-tetrahydro-1H-beta-carboline-1-carboxylate] | 98.7 | – | – | – | 0.523 |
| COc1ccc2[nH]c3c(c2c1)CCC(C)/C3=N/N (stereo not drawn) [Example 134, 6-methoxy-2-methyl-2,3,4,9-tetrahydro-1H-carbazol-1-one hydrazone] | 108 | – | 7.33 | – | – |
| COc1ccc2[nH]c3c(c2c1)CCNC3c1nnn[nH]1 (stereo not drawn) [Example 143, 6-methoxy-1-(1H-tetraazol-5-yl)-2,3,4,9-tetrahydro-1H-beta-carboline trifluoroacetate hydrate] | 127 | ≥ 100 | – | – | – |
| CC(=O)Oc1ccc2[nH]c3c(c2c1)CCNC3C(=O)O (stereo not drawn) [Example 156, 6-(acetyloxy)-2,3,4,9-tetrahydro-1H-beta-carboline-1-carboxylic acid trifluoroacetate] | 167 | 100 | 100 | – | – |
| COc1ccc2[nH]c3c(c2c1)CCN(C)C3C(N)=O (stereo not drawn) [Example 170, 6-methoxy-2-methyl-2,3,4,9-tetrahydro-1H-beta-carboline-1-carboxamide] | > 200 | – | – | > 100 | – |
| COC(=O)C1NCCc2c1[nH]c1ccc(OCc3ccccc3)cc21 (stereo not drawn) [Example 175, methyl 6-(benzyloxy)-2,3,4,9-tetrahydro-1H-beta-carboline-1-carboxylate hydrochloride] | > 200 | – | – | 26.5 | – |
